Results reported in US20060100170A1, “Isopycnic pharmaceutical formulation” (Agouron Pharmaceuticals, Inc., priority 2004, published 2006).
Blank lines part the entries; values can stand above or below the molecule they belong to.

Assays:
[1] = Particle size distribution following jet-milling; format: physicochemical
Text: The pharmaceutical agent is stable following gamma irradiation at 25 kGy and is stable following e-beam irradiation at 25 kGY. The particle size distribution, calculated by means well known in the art, following jet-milling (in microns) is as follows:
d10=0.5; d50=1.5; and d90=3.5; wherein for example, d50 represents 50% of the pharmaceutical agent is 1.5 microns or less in size.

[2] = Stability of the drug substance to light, room temperature and irradiation; format: physicochemical
Text: The pharmaceutical agent is stable following gamma irradiation at 25 kGy and is stable following e-beam irradiation at 25 kGY. The particle size distribution, calculated by means well known in the art, following jet-milling (in microns) is as follows: […]

[3] = Drug depot below Tenon's capsule vs below the conjunctiva, retinal drug concentration; format: in vivo, New Zealand White rabbits; conditions: depot on outer surface of the sclera below Tenon's capsule; measured the day after the injection; rabbit eyes
Text: The sclera and Tenon's capsule define the exterior surface of the globe of the eye. For treatment of ARMD, CNV, retinopathies, retinitis, uveitis, cystoid macular edema (CME), glaucoma, and other diseases or conditions of the posterior segment of the eye, it is preferable to dispose a depot of a specific quantity of an ophthalmically acceptable pharmaceutically active agent directly on the outer surface of the sclera and below Tenon's capsule. In addition, in cases of ARMD and CME it is most preferable to dispose the depot directly on the outer surface of the sclera, below Tenon's capsule, and generally above the macula. In a study using New Zealand White rabbits, a drug depot of 4,9(11)-Pregnadien-17α,21-diol-3,20-dione-21-acetate, an angiostatic steroid available from Steraloids, Inc. of Wilton, N.H., was disposed directly on the outer surface of the sclera, below the Tenon's capsule, and slightly posterior of the equator of the rabbit eyes. […] Given the fact that the Tenon's capsule of a New Zealand White rabbit is very thin, these beneficial results are highly unexpected. It is important to note that Tenon's capsule of the human eye is also very thin. […]

[4] = Sucrose effect on content uniformity in the ready to use (RTU) composition; format: physicochemical; conditions: ready to use composition made with sucrose from different vendors, FIG. 2
Text: The concentrated sterile aqueous composition preferably comprises sucrose. The concentrated sterile aqueous composition comprises sucrose in an amount sufficient to form a stable aqueous composition of pharmaceutical agent represented by formula 1, typically about 40 to 80 weight percent sucrose based on the total weight of the composition. The concentrated sterile aqueous composition comprises sucrose in an amount ranging from a lower limit of 40, 45, 50, 55 or 60 or 65 weight percent, based on the total weight of the composition, to an upper limit of 70 or 75 or 80 weight percent, based on the total weight of the composition, with ranges from any upper limit to any lower limit being contemplated.
FIG. 2 illustrates the sucrose effect on content uniformity in the ready to use (RTU) composition.
The vertical bars represent 95% Confidence Interval.

particle size d10 [1]: 0.5 microns
particle size d50 [1]: 1.5 microns
particle size d90 [1]: 3.5 microns
light sensitivity ([2]; drug substance): light insensitive
stability following e-beam irradiation ([2]; e-beam irradiation at 25 kGY): stable
stability following gamma irradiation ([2]; gamma irradiation at 25 kGy): stable
stability at room temperature ([2]; room temperature): stable
Compound: Cc1cc(C(=O)Nc2cc(Nc3ccc4c(/C=C/c5ccccn5)n[nH]c4c3)ccc2F)n(C)n1 [pharmaceutical agent 1]

concentration of the angiostatic steroid, averaged over the entire retina, relative to a depot below the conjunctiva but above the Tenon's capsule [3]: about ten times greater
Compound: CC(=O)OCC(=O)[C@@]1(O)CC[C@H]2[C@@H]3CCC4=CC(=O)CC[C@]4(C)C3=CC[C@@]21C [4,9(11)-Pregnadien-17α,21-diol-3,20-dione-21-acetate]

content uniformity [4]: best content uniformity
Compound: OC[C@H]1O[C@@](CO)(O[C@H]2O[C@H](CO)[C@@H](O)[C@H](O)[C@H]2O)[C@@H](O)[C@@H]1O [Sigma, S3929 Lot 101K0105, sucrose]
